Experimental data published in ChEMBL document CHEMBL1133957, “A selective inhibitor of Escherichia coli prephenate dehydratase” (Bioorg Med Chem Lett, 2001).
The source made the active and inactive calls. The calls are words filed in the database; no cut-off is given here.

Legend:
[1] = Inhibitory activity against chorismate mutase; parameters: species or system Escherichia coli
[2] = Inhibitory activity against (PDT22) Prephenate dehydratase; parameters: species or system Escherichia coli
[3] = tested on: Escherichia coli; test: Inhibitory activity against chorismate mutase at 500 uM; No inhibition
[4] = tested on: Escherichia coli; test: Inhibitory activity against (PDT22) Prephenate dehydratase at 500 uM; No inhibition
[5] = Inhibitory activity against Chorismate mutase; parameters: species or system Escherichia coli
[6] = tested on: Escherichia coli; test: Inhibitory activity against chorismate mutase; No inhibition
[7] = tested on: Escherichia coli; test: Inhibitory activity against (PDT22) Prephenate dehydratase at 500 uM

| Structure (SMILES) | IC50 [1] | IC50 [2] | further results |
| --- | --- | --- | --- |
| COc1cccc(C(=O)O)c1-c1c(C(=O)O)cccc1[N+](=O)[O-] | 800 µM | 3000 µM | – |
| O=C(O)c1ccccc1-c1ccccc1C(=O)O | – | – | inhibition [3]: inactive; inhibition [4]: inactive |
| O=C(O)c1ccccc1-c1c(O)cccc1C(=O)O | 1000 µM | 2900 µM | – |
| O=C(O)c1cccc(C(=O)O)c1-c1c(C(=O)O)cccc1[N+](=O)[O-] | 450 µM | 1700 µM | – |
| O=C(O)c1cc(O)ccc1-c1c(C(=O)O)cccc1[N+](=O)[O-] | 350 µM | 950 µM | – |
| O=C(O)c1ccc([N+](=O)[O-])cc1-c1c(C(=O)O)cccc1[N+](=O)[O-] | 1150 µM | 750 µM | – |
| O=C(O)c1cccc([N+](=O)[O-])c1-c1c(C(=O)O)cccc1[N+](=O)[O-] | 50 µM | 600 µM | – |
| O=C(O)c1cccc([N+](=O)[O-])c1-c1cccc(F)c1C(=O)O | 600 µM | 2250 µM | – |
| COc1cccc(C(=O)O)c1-c1ccccc1C(=O)O | – | 4000 µM | – |
| O=C(O)c1ccccc1-c1c(C(=O)O)cccc1[N+](=O)[O-] | 280 µM | 1900 µM | – |
| O=C(O)c1cc(C(=O)O)c(-c2ccccc2[N+](=O)[O-])c(C(=O)O)c1 | – | 1850 µM | IC50 [5]: 3000 µM |
| O=C(O)c1ccc([N+](=O)[O-])c(-c2c(C(=O)O)cccc2[N+](=O)[O-])c1 | 1350 µM | 550 µM | – |
| Cc1cccc(C(=O)O)c1-c1c(C(=O)O)cccc1[N+](=O)[O-] | 730 µM | 1300 µM | – |
| CC(=O)Nc1cccc(C(=O)O)c1-c1c(NC(C)=O)cccc1C(=O)O | – | – | inhibition [6]: inactive; inhibition [4]: inactive |
| O=C(O)c1cc(O)c(O)cc1-c1c(C(=O)O)cccc1[N+](=O)[O-] | 1000 µM | – | inhibition [7]: < 25% |
